The results in this text go back to a melting point compilation (Tetko et al.; mined from patent text by program, amines drawn as free bases though some values may be those of a salt).

Each structure is given as a SMILES string.

As to `CCc1ccc2oc(C(=O)Nc3ccc(-c4ccc(S(=O)(=O)NC(C(=O)OC)C(C)C)cc4)cc3)c(C)c2c1OC` (configuration not stated), the melting point (commonly the temperature of the solid-liquid transition) fell in the range of 170 to 172 °C.

The molecule `CNC(=O)C#Cc1ccccc1C` gave a melting point of 52 to 55 °C.

In turn, `NC(=O)c1cccc2c1[nH]c1c3cc(Br)ccc3oc21` showed a melting point of 300 to 301 °C.

As for `CCOC(=O)c1ccc(Cl)nn1`, the melting point fell in the range of 145 to 150 °C.

The molecule `Cn1c(=O)oc2cc(CCCN3CCOCC3)cnc21` showed a melting point below 80 °C.

Molecule `CC(C)C(NC(=O)OCc1ccccc1)C(=O)NC(Cc1ccccc1)C(O)C(Cc1ccccc1)NC(=O)C(NC(=O)OCc1cccnc1)C(C)C` (configuration not stated) had a melting point of 177 to 178 °C.

In the case of `COc1ccc(-n2cnnc2C(C)O)cc1` (configuration not stated), the melting point was found to be 170 °C.

In turn, `c1ccc2c(OCCN3CCCCC3)c3ccccc3c(OCCN3CCCCC3)c2c1` had a melting point of 103 to 106 °C.

Take `COc1ccc(Nc2cccc3c2C(=O)N(C2CCC(=O)NC2=O)C3=O)cc1O` (configuration not stated): the melting point lay in the range of 225 to 227 °C.

As for `CCc1cc(Oc2ccc(S(C)(=O)=O)nc2)cc2cc(C3=NCC(CC(N)=O)S3)[nH]c12` (configuration not stated), the melting point was 190 to 191 °C.

In turn, `CC(C)(C)c1cc(SCc2ccc(C#N)cc2)cc(C(C)(C)C)c1O` gave a melting point of 143 to 145 °C.

The molecule `Fc1ccc(Oc2cc3c(Cl)nc(Cl)nc3cn2)c(F)c1` returned a melting point of 144 to 146 °C.

`Cc1sc(-c2ccccc2)nc1COc1ccc(CCl)cc1` showed a melting point of 100 to 101 °C.

`CCOc1cc(CCNC(=O)Cn2c(C#N)ccc2-c2ccc3c(c2)C(C)(C)OC(=O)N3)ccc1OC` returned a melting point of 160 to 162 °C.

`COC(=O)[C@H](Cc1cc(Cl)c(OCCCNC(=O)OC(C)(C)C)c(Cl)c1)NC(=O)C(F)(F)F`: the melting point fell in the range of 90 to 91.5 °C.

Take `CCN(CC)CC(O)c1c[nH]c2c1ccc1c3ccccc3[nH]c12` (configuration not stated): the melting point is 148 to 150 °C.

As for `CCc1nc2c(cnn2CC)c(NC2CCOCC2)c1CNC(=O)c1cccc(C(=O)NCc2ccc(F)c(-c3cccc(CN4CCN(CC)CC4)c3)c2)c1`, the melting point is 155 to 158 °C.

On to `CCOC(=O)c1cc(=O)cc(-c2ccccc2OC)o1`, for which the melting point lay in the range of 78 to 81 °C.

In turn, `NC(=O)c1cccc(CCN2CC=C(c3c[nH]c(-c4ccc(F)cc4)c3-c3ccncc3)CC2)c1` gave a melting point of 185 to 188 °C.

The molecule `OCCCOC(c1ccccc1)(c1ccccc1)c1ccccc1` had a melting point of 117 to 118 °C.

Regarding `Cc1nn(C)c2c1N(C(=O)CN(C)C)c1ccccc1NC2=O`, the melting point fell in the range of 178 to 179 °C.

As for `O=C(NCc1ccccc1)NNC(=O)c1ccc(Cl)cc1`, the melting point is 244 to 246 °C.

`OC(c1cc(-c2ccc(F)cc2)c(-c2ccc(F)cc2)[nH]1)C(F)(F)F` (configuration not stated): the melting point was 121 to 122 °C.

`O=C(NNC(=O)c1occ(-c2ccccc2)c1-c1ccccc1)c1ccc(O)c(C(F)(F)F)c1` gave a melting point of 142 to 143 °C.

Molecule `CN(C)C1(c2ccc(C(C)(C)C)cc2)CCC(=O)CC1` displayed a melting point of 82.5 to 87 °C.

Molecule `CC(C)CCOC(=O)c1cccc(-c2cn(C)cc(-n3cccn3)c2=O)c1` gave a melting point of 115 to 118 °C.

The molecule `CN1CCC(Sc2ccc3[nH]c(=O)[nH]c(=O)c3c2)CC1` returned a melting point above 260 °C.

In the case of `O=C1CCC2=C1C(c1ccc(F)c(F)c1)C1=C(CCS1)N2` (configuration not stated), the melting point is above 260 °C.

Regarding `O=C(c1ccc(-c2ccccc2)cc1)c1cccc(C(=O)c2ccc(-c3ccccc3)cc2)c1`, the melting point fell in the range of 182 to 186 °C.

`CC(=O)Nc1ccc(OCC(O)CN(C)C)c(NC(C)=O)c1` (configuration not stated) had a melting point of 118 to 120 °C.

Turning to `CC(C)(C)C1Cc2cc(OCC(=O)O)c(Cl)c(Cl)c2C1=O` (configuration not stated), the melting point lay within 155 to 175 °C.

As to `c1ccc(OCCSCc2nnc(-c3ccc(OCc4ccncc4)cc3)o2)cc1`, the melting point lay in the range of 80 to 90 °C.

Molecule `CCCCCCOc1ccc2c(c1)C=C(C=O)CO2` registered a melting point of 36 to 38 °C.

`CCCNc1nc(C)c(CCCl)c(=O)n1C`: the melting point came out at 150 °C.

Molecule `CN(C(=O)c1ccc2nonc2c1)C1CCCC1` came in with a melting point of 110 to 111 °C.

`CCOC(=O)N1CCC23CCCCC12c1ccccc1CC3` (configuration not stated): the melting point lay in the range of 67 to 69 °C.

On to `Clc1ccc(N2CCN(Cc3coc4cccnc34)CC2)cc1`, for which the melting point lay in the range of 128 to 129 °C.

Molecule `O=C1CCN(c2cc(Cl)ncn2)CC1` came in with a melting point of 100 to 103 °C.

`COc1ccc2sc(C(=O)Nc3ccc(S(=O)(=O)OC)cc3)c(OC(C)C)c2c1` gave a melting point of 176 to 177 °C.

For `CCOP(=O)(Cc1cc(Cl)c(O)c(C(C)(C)C)c1)OCC`, the melting point was determined as 116 °C.

As to `C=CC(=O)NC1Cc2ccc(-c3ccc(=O)[nH]n3)cc2C1` (configuration not stated), the melting point lay within 235 to 237 °C.

Turning to `CC(=O)OCC1COc2c(cc(Cl)cc2[N+](=O)[O-])N1` (configuration not stated), the melting point was 76 to 84 °C.

`COc1ccc2[nH]c3c(C)c4ccnc(NC5CC(C)(C)NC(C)(C)C5)c4cc3c2c1`: the melting point fell in the range of 223 to 225 °C.

`N#CNC(=NC1CCN(CCCc2ccccc2)CC1)N1CCc2ccccc2C1` showed a melting point of 122 to 124 °C.

`CC1=C(N2CCN(C(=O)Nc3ccc(Cl)cc3)CC2)C(=O)c2ccccc2C1=O`: the melting point fell in the range of 190 to 192 °C.

`CC(C)(CO[N+](=O)[O-])C(=O)N1C(C(=O)O)CSC1c1ccccc1` (configuration not stated) had a melting point of 35 to 38 °C.

In turn, `Cc1ccc(S(=O)(=O)N2[C@H](CCCNS(C)(=O)=O)CC[C@@H]2c2ccc(F)cc2)cc1` (racemic) returned a melting point of 123 °C.

`Cc1cc(CCNc2ncnc3c(F)ccc(F)c23)ccc1Oc1cc(C(F)(F)F)ccn1`: the melting point lay in the range of 108 to 110 °C.

`C=Cc1c(NCc2ccco2)nc(-c2ccc(Cl)c(OC)c2F)nc1C(=O)OC`: the melting point fell in the range of 100 to 102 °C.

`Cc1cc2c(cc1Cl)N(C(=O)CN1CCN(C)CC1)c1ccccc1N(C)S2(=O)=O` registered a melting point of 156 to 158 °C.

On to `O=C1N=NC(=O)N1c1ccccc1`, for which the melting point is 102 to 107 °C.

In turn, `CN1CC=C(c2cc3cc(Cl)ccc3o2)CC1` gave a melting point of 108 to 118 °C.

`COc1ccc(-c2cn(CCCC#N)c3c(OC)ccc(OC)c3c2=O)cc1` gave a melting point of 126 to 127 °C.

The molecule `CC(C)NCCCCCCOc1ccc(O)cc1` yielded a melting point of 78 to 86 °C.

`CC(C)C[C@@H](C#N)NC(=O)[C@@H]1CCCC[C@@H]1NC(=O)c1cc2ccccc2n1CCO` returned a melting point of 59 to 63.5 °C.

In turn, `CC(C(O)c1ccccc1)n1nnc2cc3c(cc2c1=O)OC1CCCN1C3=O` (configuration not stated) had a melting point of 235 to 238 °C.

The molecule `COC(=O)CCCCCCCCOC1OC(CO)C(O)C(O)C1O` (configuration not stated) gave a melting point of 104 to 105 °C.

The molecule `CC(=NOCCOc1ccc(CC2SC(=O)NC2=O)cc1)c1ccc(O)nc1` (configuration not stated) gave a melting point of 240 to 242 °C.

In turn, `Nc1nc(=O)n(C(=O)Oc2ccccc2)cc1F` gave a melting point of 175 to 180 °C.

Regarding `O=C1c2ccccc2C2(c3ccc(Cl)cc3)NCCCCN12` (configuration not stated), the melting point was in the range of 134 to 135 °C.

On to `CCOCc1nc2c(N)nc3ccc(O)cc3c2n1CC(C)(C)NC(=O)C1CCCCC1`, for which the melting point lay within 231 to 232 °C.

For the molecule `COc1ccccc1OCC(O)CN1CCC2(CC1)CNC(=O)O2` (configuration not stated), the melting point fell in the range of 124 to 125 °C.

As for `CON=C1CN(c2c(F)cc3c(=O)c(C(=O)O)cn(C4CC4)c3c2F)CC12CNC2`, the melting point was in the range of 205 to 207 °C.

As to `Cc1c2c(cc3ccc(=O)oc13)C=CC(C)(C)O2`, the melting point lay within 105 to 107 °C.

On to `S=C(Nc1ccc(Cl)cc1)NC1CCCCC1`, for which the melting point fell in the range of 179 to 180 °C.

Take `CN1CCCC(OC(=O)Nc2ccc(F)cc2)C1` (configuration not stated): the melting point was 97 to 98 °C.

Molecule `COc1cc(N2CCN(C[C@@H](O)CO)CC2)ccc1Nc1ncc2ccc(-c3cc(Cl)ccc3OC)n2n1` displayed a melting point of 101 to 104 °C.

The molecule `CC(C)C(NC(=O)OCc1ccccn1)C(=O)NC(Cc1ccccc1)C(O)C(O)C(Cc1ccccc1)NC(=O)OC(C)(C)C` (configuration not stated) had a melting point of 202 to 204 °C.

In the case of `CC1(C)Oc2ccc(C(=O)CCC(=O)O)cc2NC1=O`, the melting point was in the range of 226 to 228 °C.

Regarding `c1cc2c(cc1CCSSCCc1ccc3c(c1)OCO3)OCO2`, the melting point was 76 to 78 °C.

Turning to `C=C(C)C(=O)OCCOC(=O)c1ccc2c(c1)C(=O)N(OS(=O)(=O)c1ccc(C)cc1)C2=O`, the melting point amounted to 113 °C.

As to `COc1cc(N2CCN([C@H]3CC[C@@H](c4cn(C)c5ccc(C#N)cc54)CC3)CC2)c2ncc(C)cc2c1`, the melting point was in the range of 190 to 192 °C.

`CCCCCCOC(=O)CCCC(C)(C)c1cc(O)c(C(C)(C)CCCC(=O)OCCCCCC)cc1O` came in with a melting point of 77 to 78 °C.

`Nc1cc(-n2cc(C(=O)O)c(=O)c3cc(F)c(F)c(Cl)c32)c(Cl)cc1F` gave a melting point of 237 to 242 °C.

Turning to `CCOC(OCC)c1cc(NC(c2ccccc2)(c2ccccc2)c2ccccc2)c(F)c(C2CCC2)n1`, the melting point was 121 to 122 °C.

Turning to `CCOC=Nc1c(C(=O)OCC)cnn1C`, the melting point is 32 to 34 °C.

For `O=C(Cc1ccccc1)OCCOC(=O)NC1(C(=O)O)CC1`, the melting point lay in the range of 142 to 146 °C.

Take `COc1cc(COC(=O)C2Cc3sccc3C(=O)N2Cc2cc(OC)c(OC)c(OC)c2)cc(OC)c1OC` (configuration not stated): the melting point turned out to be 55 °C.

Molecule `COc1ccc2nccc(CCC[C@@H]3CCN(CCCc4cccs4)C[C@@H]3C(=O)O)c2c1` had a melting point of 60 °C.

Consider `CS(=O)c1ccc(C2=C(c3ccccc3)C(=O)C(C)(C)O2)c(Cl)c1` (configuration not stated), for which the melting point lay in the range of 135 to 136 °C.

As for `CCCCCCCCCCCCCCCCC(C)C(=S)OC` (configuration not stated), the melting point is 39 to 40 °C.

In turn, `Fc1cc(F)c(-c2c(Cl)nc3ncnn3c2Cl)c(F)c1` came in with a melting point of 125 to 126 °C.

`C=CCCCn1ncc2c(N)c(C(=O)OCC=C)c(C)nc21` came in with a melting point of 62 to 62.5 °C.

On to `Cc1cc(SC#N)c(C(C)(C)C)cc1NC(=O)OC(C)(C)C`, for which the melting point is 100 to 111 °C.

`COCOc1c(NC(=O)N(c2ccccc2)C2CCC(NC(=O)OCc3ccccc3)CC2)cc(OC)cc1C(C)(C)C` (configuration not stated) returned a melting point of 145 to 154 °C.

`CNC(=O)N(O)C(C)C#Cc1cccc(Oc2ccccn2)c1` (configuration not stated) gave a melting point of 147 to 149 °C.

For `COC(=O)C(NC(=O)c1ccccc1)c1ccc(-c2ccc(S)cc2)cc1` (configuration not stated), the melting point is 150 to 152 °C.
